In US7977364B2, “Indazoles, benzisoxazoles and benzisothiazoles and their use as estrogenic agents” (Laboratoire Thermamex, priority 2004, dated 2011):
Read-outs that look alike come from different tables or passages of the source.

Tests used:
Prepubescent female rats = assay: Estrogenic / uterotrophic activity in vivo (uterus wet weight); parameters: species or system rat; conditions: Rattus norvegicus, po, 72 h, orally 3 mg/rat/day for 3 days, read-out: % stimulation vs vehicle (uterus weight)
Experimental: Prepubescent female rats were orally treated at 3 mg/rat/day for 3 days. On the day following the last treatment, uteri were removed and wet weights were recorded.
The results are expressed as % of stimulation of uterus weight in comparison with vehicles. […]
Prepubescent female rats were orally treated with 0.3; 1; 3 or 10 mg/rat/day for 3 days. On the day following the last treatment, uteri were removed and wet weights were recorded.

ovariectomized rats = assay: Hot flush model in vivo: tail skin temperature, uteri and body weight; conditions: 3 mg/rat/day
rats = assay: Forced swimming test (antidepressant activity, immobility duration); assay type: in vivo, rat
Source text: Antidepressant effect of estradiol was recently reported in studies using ER β KO mice model. In addition, ER β localization in dorsal raphe nucleus area in rat has been described. The gold standard test for antidepressant potency of compound consist in the forced swimming test, in this experiment antidepressants could be distinguished from psychostimulants which decreased immobility at doses which increased general activity. In order to investigate the putative antidepressant potency of the compounds reported here, the forced swimming test was performed according to the following design. The animals were housed six per cage under standard colony conditions, with a 12 h light/dark cycle and ad libitum food and water. They were allowed to acclimatize to the colony for at least 7 days prior to any experimentation. For subcutaneous administration, the compound of Example 23 was dissolved in olive oil and diluted to the desired concentration on the day of administration. For positive control, intraperitoneal (i.p.) injection of desipramine was done. Desipramine was dissolved in double-distilled water (10 mg/kg). The experiments were conducted 30 min after the positive control drug treatment (only for desipramine treatment). Other compounds, ie: estradiol and the compound of Example 23 were daily injected subcutaneously in rats, during a 7 days period. Acquisition were performed on day 8 (24 h after the last administration of items) and day 9 (48 h after estradiol or compound 23 administration), respectively. Data acquired 24 hours after the last administration consisted in the “naïve animal group”, these animals had never been previously tested in the device. Data acquired 48 hours after a last administration of compounds consisted in “trained animal group”.
On the 8th, the forced swim test was performed. This study was carried out in rats according to the methods described by Porsolt (Eur. J. Pharm., 1978). Briefly, rats were placed individually in glass cylinders (height: 40 cm, diameter: 18 cm) containing 25 cm of water at 25° C. Ten minutes later, rats were removed and dried before being returned to their home cages. The animals were replaced in the cylinders 24 h later, and the procedure was repeated, and a 10-min observation period was recorded.

[1] = tested on: human endometrial adenocarcinoma Ishikawa cells; assay: Estrogenic and anti-estrogenic activities in vitro: induction of alkaline phosphatase (APase) activity; assay type: cell-based; conditions: Homo sapiens, Ishikawa, 96 h; compound alone, four days; ND = not detected; read-out: Estrogenic activity EC50 (nM) ± S.E.M
Experimental: The estrogenic and anti-estrogenic potentials of new compounds were evaluated using the induction of alkaline phosphatase (APase) activity, an estrogen specific response in human endometrial adenocarcinoma Ishikawa cells (Botella J., J Steroid Biochem Molec Biol, 1995, 55: 77-84; Littlefield et al., Endocrinology, 1990, 127: 2757-2762).
Ishikawa cells were routinely grown as monolayers in Dulbecco's Modified Eagle's medium (DMEM) containing 4 mM Glutamax I and supplemented with 10% of decomplemented fetal calf serum (dFCS) and antibiotics. They were maintained in a humidified atmosphere of 5% CO2 and 95% air, at 37±0.1° C. Stocks were performed once a week to maintain continuous exponential growth.
For studies, Ishikawa cells were plated into 96-well microplates. The next day, the medium was changed to a phenol red-free DMEM containing 5% dFCS stripped of endogenous estrogens by dextran coated charcoal treatment.
At the end of the incubation period, APase activity was assayed by a method involving the hydrolysis of p-nitrophenyl phosphate to p-nitrophenol at pH 9.8 and spectrophotometric determination of the product at 405 nm.
In brief, the microplates were first rinsed twice with cold phosphate buffered solution and then placed at −80° C. for at least 15 minutes. After thawing at room temperature for 5-10 minutes, the plates were put on ice and 50 μl ice-cold solution containing 5 mM p-nitrophenyl phosphate was added to each well. The plates were warmed to room temperature to allow for the development of the enzymatic reaction (t0). After a 15 to 60 minute incubation period, the intensity of the yellow color generated by the production of p-nitrophenol was measured into each well at 405 nm using a microplate reader (Wallac, model 1420 Victor^2). […] Sigmoidal dose-response curves were plotted and EC50 (estrogenic effect) and IC50 (anti-estrogenic effect) values were calculated for each compound.

[2] = tested on: human breast cancer cell line MCF-7; assay: Proliferative activity in vitro (ATP luminescence, 6 days); assay type: cell-based; conditions: Homo sapiens, MCF7, 144 h
Experimental: The proliferative effect of the compounds of the invention was evaluated on human breast cancer cell line MCF-7 by measuring the number of viable cells after 6 days of treatment.
MCF-7 cells were routinely cultured as monolayers in Dulbecco's modified Eagle's medium (DMEM) containing 4 mM Glutamax and 4.5 g/l glucose and supplemented with 5% (v/v) decomplemented fetal calf serum (dFCS) and antibiotics.
Cells were plated at 2.10^6 cells/75 cm^2 flasks and incubated at 37° C. in a humidified atmosphere containing 5% CO2. They were passaged once weekly to maintain continuous exponential growth. Forty eight hours before the start of an experiment, near-confluent cells were changed to a phenol red free DMEM containing 5% steroid-stripped dFCS by dextran coated charcoal treatment (DCC-DMEM). On the day of the experiment, cells were harvested by brief exposure to trypsin and plated in DCC-DMEM in 96-well microplates at a density of 4.10^3 cells/well. The next day, the medium was renewed and test compounds, diluted appropriately in estrogen-free DMEM, were added and incubated for six days. […] At the end of the incubation period, cell proliferation was evaluated by quantitation of the cellular ATP content which signals the presence of metabolically active cells.
The assay, based on the ATP-dependent luciferase reaction, enables generation of a luminescent signal proportional to the amount of ATP present. As there is a linear relationship between the amount of ATP and the number of viable cells present in culture, the luminescent signal allowed to precisely evaluate cell proliferation (Crouch, S. P. M. et al. J. Immunol. Meth., 1993, 160, 81; Kangas, L. et al. Med. Biol. 1984, 62, 338; Petty, R. D. et al. J. Biolum. Chemilum. 1995, 10, 29).
In brief, the microplates were inverted to discard the culture medium and 100 μl of fresh medium was added into each well. The microplates were equilibrated at room temperature for approximately 30 minutes. 100 μl of luciferase reagent was added into each well and contents were mixed for 2 minutes to induce cell lysis. The plates were incubated at room temperature for 10 minutes to stabilize luminescence signal.
Luminescence was recorded using a microplate reader (Wallac, model 1420 Victor^2) and results were expressed as percentage of the control luminescence. Sigmoidal dose-response curves were plotted and EC50 values were calculated for each compound in order to evaluate their proliferative potency.

**Q.** How did the change in vivo at 3 mg (Prepubescent female rats; Table 4) turn out when C[C@]12CC[C@@H]3c4ccc(O)cc4CC[C@H]3[C@@H]1CC[C@@H]2O [Example E2, 17β-estradiol, reference compound] was run?
**A.** 526%

**Q.** What about the change in vivo at 3 mg (Prepubescent female rats; Table 5) of the same compound?
**A.** 333%

**Q.** What about the “TST Variation day 1 vs day 0” value (ovariectomized rats) of the same compound?
**A.** −4.8 C. °

**Q.** What about the “TST Variation day 4 vs day 0” value (ovariectomized rats) of the same compound?
**A.** −3.5 C. °

**Q.** What about the “TST Variation day 7 vs day 0” value (ovariectomized rats) of the same compound?
**A.** −5.6 C. °

**Q.** And the “Body weights (% increase vs vehicle)” value (ovariectomized rats; after one week treatment)?
**A.** −10%

**Q.** And the “Uteri weight (% increase vs vehicle)” value (ovariectomized rats; after one week treatment)?
**A.** 273%

**Q.** And the “immobility duration, Naïve animals” value (rats; 0.007 mg/rat/day s.c. 7 days, 24 h after last administration, 10 minutes test)?
**A.** 22.5 ± 7.1 s

**Q.** And the “immobility duration, Trained animals” value (rats; 0.007 mg/rat/day s.c. 7 days, 48 h after last administration, 10 minutes test)?
**A.** 79.2 ± 23.0 s

**Q.** What about the antidepressor potency (rats; 24 h and 48 h after administration, in words) of the same compound?
**A.** confirmation of the antidepressor potency

**Q.** And the EC50 [1]?
**A.** 0.1 ± 0.05 nM

**Q.** What about the EC50 ([2]; read-out: Cell proliferation EC50 (nM) ± S.E.M) of the same compound?
**A.** 0.01 nM

**Q.** And the activity at 1 µM ([2]; MCF-7, 10^−6 M, six days, read-out: Effect at 10^−6 M (% of control))?
**A.** 205%

**Q.** And the activity at 0.01 µM ([2]; MCF-7, 10^−8 M, six days, read-out: Effect at 10^−8 M (% of control))?
**A.** 212%

**Q.** Which “immobility duration, Trained animals” value (rats; dosage 30 (mg/rat/day) as in table, i.p., 30 min before test, 10 minutes test) does the source give for CNCCCN1c2ccccc2CCc2ccccc21 [desipramine, reference compound] here?
**A.** 2.6 ± 1.5 s
